Molecules are shown by their SMILES. The source made the active and inactive calls. The calls are words filed in the database; no cut-off is given here.

For assay [1], the system named is HepG2. Description: Recovery of mitochondrial biogenesis in 40% FBS-induced steatosis human HepG2 cells model assessed as increase in mitochondrial COX1 protein expression incubated for 24 hrs by western blot analysis. The assay is classed as functional, cell-based. The following applies: dose 0.2-5 µM. For orientation: Immunoblotting shows a protein as a band on a membrane.

The target in assay [2] is T1, Peroxisome proliferator-activated receptor gamma coactivator 1-alpha (Homo sapiens) (UniProt Q9UBK2).
T1 sequence (whole entry): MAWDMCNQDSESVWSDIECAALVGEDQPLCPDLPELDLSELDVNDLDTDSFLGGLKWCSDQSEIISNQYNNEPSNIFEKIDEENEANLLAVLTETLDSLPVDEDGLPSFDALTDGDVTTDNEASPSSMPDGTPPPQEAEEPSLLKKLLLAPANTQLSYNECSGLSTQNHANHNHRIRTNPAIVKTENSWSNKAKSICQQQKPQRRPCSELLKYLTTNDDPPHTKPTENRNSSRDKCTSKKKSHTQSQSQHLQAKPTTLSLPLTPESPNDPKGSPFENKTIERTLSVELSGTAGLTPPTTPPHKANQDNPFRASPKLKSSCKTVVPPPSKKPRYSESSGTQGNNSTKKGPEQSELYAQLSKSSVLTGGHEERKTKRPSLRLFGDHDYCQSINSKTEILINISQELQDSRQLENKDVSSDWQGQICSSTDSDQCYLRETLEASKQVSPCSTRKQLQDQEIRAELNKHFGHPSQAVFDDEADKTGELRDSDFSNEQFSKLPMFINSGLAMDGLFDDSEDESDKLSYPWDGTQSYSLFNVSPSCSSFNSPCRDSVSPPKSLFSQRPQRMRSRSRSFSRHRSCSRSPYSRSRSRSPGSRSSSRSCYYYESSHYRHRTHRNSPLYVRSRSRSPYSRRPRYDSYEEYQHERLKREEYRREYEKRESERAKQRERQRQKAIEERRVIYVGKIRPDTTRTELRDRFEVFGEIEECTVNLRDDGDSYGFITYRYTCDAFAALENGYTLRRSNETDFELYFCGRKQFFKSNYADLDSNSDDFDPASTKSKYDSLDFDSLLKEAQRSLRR
Description: Binding affinity to PGC1alpha in human HepG2 cells assessed as increase in protein abundance at 80 to 320 uM pretreated with compound for 30 mins followed by proteolysis for 15 mins by DARTS assay. The assay is classed as cell-based. To be noted: filed as activator, dose 80-320 µM, time 45.0 min.

Assay [3] deals with HepG2. Description: Recovery of mitochondrial biogenesis in 40% FBS-induced steatosis human HepG2 cells model assessed as increase in mitochondrial ND6 mRNA expression incubated for 24 hrs by qRT-PCR analysis. To be noted: dose 0.2-5 µM. In kind it is functional, cell-based.
Assay [4] deals with HepG2. Description: Induction of mitochondrial biogenesis in human HepG2 cells assessed as mitochondrial ND6 mRNA expression incubated for 24 hrs in presence of SIRT1 inhibitor, EX527 by qRT-PCR analysis. The assay is classed as functional, cell-based.
The test system of assay [5] is HepG2. Description: Inhibition of mitochondrial membrane potential dissipation in 40% FBS-induced steatosis human HepG2 cells model assessed as increase in mitochondrial membrane potential incubated in steatosis inducing DMEM with 40% FBS medium for 24 hrs followed by compound treatment by JC-1 staining based fluorescence microscopy. In kind it is functional, cell-based. The following applies: Mitochondria, dose 0.2-5 µM.

The target in assay [6] is T1, Peroxisome proliferator-activated receptor gamma coactivator 1-alpha (Homo sapiens). Description: Binding affinity to PGC1alpha in human HepG2 cells assessed as increase in thermal stability of protein pretreated with compound for 30 mins followed by incubation at 50 degC for 3 mins by CETSA-WB analysis. In kind it is cell-based. The following applies: filed as activator, dose 80-320 µM, time 33.0 min.

In assay [7] the test system is HepG2. Briefly: Inhibition of lipid toxicity in 40% FBS-induced steatosis human HepG2 cells model assessed as decrease in lipid accumulation at 0.2 to 5 uM incubated with compound for 24 hrs followed by replacement with steatosis inducing DMEM with 40% FBS medium by Oil red O staining based analysis. In kind it is functional, cell-based. To be noted: dose 0.2-5 µM.

The next assay has as its system Rattus norvegicus. Description: Hepatoprotective activity against high fat diet-fed NAFLD Sprague-Dawley rat model assessed as increase in serum GSH level administered intragastrically via gavage for 4 weeks. To be noted: dose 12.3-61.4 mg/kg, route ig. The assay is classed as functional, organism-based.

For the compound `CC(C)(C)c1ccc(C(=O)c2ccc(O)c(O)c2)cc1`, the Activity entry (in the assay on HepG2 [1]; in the assay with HepG2 [3]; in assay [6]) was “Dose-Dependent Effect” in each case. Moreover, the outcome (in assay [2]; in the assay on Rattus norvegicus) was Active. Besides, in the assay with HepG2 [4], the result was inactive. In the assay with HepG2 [5], the inhibition result is “Dose-Dependent Effect”. Moreover, the inhibition entry with HepG2 [7] was “Active”.

For the origin of these results see ChEMBL document CHEMBL5537110, “SIRT1-dependent mitochondrial biogenesis supports therapeutic effects of 4-butyl-polyhydroxybenzophenone compounds against NAFLD” (Eur J Med Chem, 2023).
